Values of other authors, collected in PMC1892056, “Barusiban suppresses oxytocin-induced preterm labour in non-human primates” (BMC Pregnancy and Childbirth, 2007).
Where “and” joins values, the source holds several entries; their conditions need not be identical. Equal entries are not always repeated. Where two headings read alike, the source gives them in different places.

Tests used:
[1] = tested on: pregnant cynomolgus monkeys; parameters: method as in PMID 16914691; conditions: for Treatment days until delivery / end of treatment: continuous IV infusion from ca. GD 141, daily OT challenge, barusiban group delivered after the end of treatment; for Basal overall IUP before the daily OT challenges compared to control: during continuous barusiban or fenoterol treatment; for Day of delivery: gestational day, barusiban 150 μg kg^-1 h^-1 or fenoterol 3 μg kg^-1 h^-1 continuous infusion from ca. GD 141, daily OT challenge
Source text: Background Preterm labour (PTL) is a major cause of neonatal mortality and morbidity, and oxytocin (OT) antagonists are potential tocolytics. Atosiban (TRACTOCILE) is a mixed vasopressin V1A/OT antagonist registered for acute treatment of PTL in Europe. […] Barusiban is a selective OT antagonist which has reached clinical development. A monkey model with OT-induced PTL was developed to compare barusiban and atosiban. In addition, the feasibility for long-term treatment of PTL with barusiban was explored.

[2] = tested on: pregnant cynomolgus monkeys
Source text: Background Preterm labour (PTL) is a major cause of neonatal mortality and morbidity, and oxytocin (OT) antagonists are potential tocolytics. Atosiban (TRACTOCILE) is a mixed vasopressin V1A/OT antagonist registered for acute treatment of PTL in Europe. Other off-label drugs have serious side effects. Barusiban is a selective OT antagonist which has reached clinical development. A monkey model with OT-induced PTL was developed to compare barusiban and atosiban. In addition, the feasibility for long-term treatment of PTL with barusiban was explored. Methods Conscious pregnant cynomolgus monkeys ... || Figure 2 Oxytocin-induced uterine contractions in cynomolgus monkeys. Individual infusion of 5–90 mU OT kg^-1 h^-1 induced stable uterine contractions of about 15–40 mmHg. No short- or long-term desensitisation of OT-induced contractions was observed. On the background of these stable OT-induced contractions, different tocolytics have been evaluated in terms of their PK/PD characteristics. Here two monkeys were infused in parallel for about 11 hours during the night. The switch-off the lights in the evening (06:00 PM) and switch-on the lights (06:00 AM) is labelled by respective symbols.

[3] = tested on: pregnant cynomolgus monkeys; conditions: for Potency (IC50): calculated PK/PD potency (plasma concentration) for inhibition of OT-induced IUP, IV bolus or infusion; for Duration of action / Onset of action / Efficacy (decrease in IUP): overall results for IV high- or low-dose bolus or infusion; for Duration of effect on IUP after high-dose infusion: two-hour high-dose IV infusion, barusiban 150 μg kg^-1 h^-1, atosiban 250 μg kg^-1 h^-1
Source text: Table 1 Summary of barusiban and atosiban PK/PD characteristics | column: Barusiban; Atosiban || Background Preterm labour (PTL) is a major cause of neonatal mortality and morbidity, and oxytocin (OT) antagonists are potential tocolytics. Atosiban (TRACTOCILE) is a mixed vasopressin V1A/OT antagonist registered for acute treatment of PTL in Europe. Other off-label drugs have serious side effects. Barusiban is a selective OT antagonist which has reached clinical development. A monkey model with OT-induced PTL was developed to compare barusiban and atosiban. In addition, the feasibility for long-term treatment of PTL with barusiban was explored. Methods Conscious pregnant cynomolgus monkeys ... || Following induction of stable contractions by OT, barusiban or atosiban were administered as high- or low-dose bolus or infusion. […] However, barusiban's duration of action was generally longer than 13–15 hours, while atosiban's effect ceased within 1.5–3 hours (Table 1). The calculated potency of barusiban was about four times higher than the potency of atosiban. || (+ 1 further places)

[4] = pregnant cynomolgus monkeys, IV high- or low-dose bolus or infusion, plasma, LC-MS/MS
Source text: Table 1 Summary of barusiban and atosiban PK/PD characteristics | column: Barusiban; Atosiban

human cloned OT receptor = conditions: selectivity OT receptor over V1A receptor
Source text: Barusiban is a new long-acting OT receptor antagonist developed for PTL. It is a cyclic heptapeptide and an analogue of endogenous OT designed for longer duration of action. This could provide the convenience of less frequent administration in the clinic. Barusiban has approximately 300-fold greater affinity for the human cloned OT receptor than for the V1A receptor, whereas atosiban binds well to both receptors. […] It has reached phase II of clinical developmen ...

[5] = pregnant cynomolgus monkeys, OT-induced contractions

Molecule | Treatment days until delivery / end of treatment [1] | Basal overall IUP before the daily OT challenges compared to control [1] | Day of delivery [1] | Potency (IC50) [3] | Duration of action [3, 5] | Onset of action [3, 5] | Duration of effect on IUP after high-dose infusion ([3]; n = 3) | Clearance [4] | Distribution [4] | Half-life [4] | other results
CC(Cc1ccc(O)cc1)NCC(O)c1cc(O)cc(O)c1 (stereo not drawn) [fenoterol, reference compound] | ~17 days | unchanged | ~154 days | – | – | – | – | – | – | – | –
oxytocin [OT] | – | – | – | – | – | – | – | – | – | – | Desensitisation of OT-induced contractions ([2]; OT infusion 5–90 mU kg^-1 h^-1, short- and long-term): no OT-related desensitization occurred; Induced uterine contractions (IUP) ([2]; individual OT infusions at 5–90 mU kg^-1 h^-1): 15–40 mmHg
Barusiban | approximately 23 days | unchanged | ~163 days | 0.0127 µg/mL | > 13 to 15 h | ≤0.5 to 1.5 h | more than 14 h | 0.417 to 1.1 mL/min/kg | 70 to 159 mL/kg | 87.6 to 154 min | Potency relative to atosiban ([3]; calculated potency of barusiban versus atosiban, OT-induced contractions): about four; Reversibility of inhibition of contractions ([3]; high-dose barusiban bolus, then escalating high-dose OT rescue infusion (133–2000 mU kg^-1 h^-1)): reversible with high-dose OT; Tolerability ([3]; pregnant cynomolgus monkeys): well tolerated; Duration of action ([3]; pregnant cynomolgus monkeys, OT-induced contractions, listed as barusiban): 13 to 15 h and > 13 h; Time to decrease in IUP compared with OT control levels ([3]; two hour high-dose IV infusion of barusiban at 150 μg kg^-1 h^-1, n = 3): ≤ 0.5 h; Days with statistically lower IUP than the control group ([1]; barusiban 150 μg kg^-1 h^-1 continuous IV infusion, daily 3–6 h OT infusion): 8/17; Rise in overall IUP during OT infusion ([1]; barusiban 150 μg kg^-1 h^-1 continuous infusion, OT control about fourfold increase): 30%; Days with statistically lower IUP than the fenoterol group ([1]; barusiban 150 μg kg^-1 h^-1 versus fenoterol 3 μg kg^-1 h^-1, continuous IV infusion, daily 3–6 h OT infusion): 11/17; Affinity for the human cloned OT receptor relative to the V1A receptor (human cloned OT receptor): approximately 300 fold
Atosiban [reference compound] | – | – | – | 0.0474 µg/mL | 1 to 3 h | ≤0.5 to 1.0 h | 3 h | 8.98 to 15.6 mL/min/kg | 359 to 640 mL/kg | 27.6 to 39.6 min | Efficacy (decrease in IUP) [3, 5]: ≤96%; Efficacy (decrease in IUP) ([3]; pregnant cynomolgus monkeys, OT-induced contractions, listed as atosiban): > 95%
